Assay results: patent US6608086B2, “Dihydropyridines and new uses thereof” (Synaptic Pharmaceutical Corporation, priority 1993, dated 2003)
Where a name gives a salt, the structure may show the parent alone. Read-outs that look alike come from different tables or passages of the source.

Key:
[1] = biological target: T1, α1B Human Adrenergic Receptor (Homo sapiens, UniProt P35368); assay: Radioligand binding, [3H]prazosin, cloned human α1B adrenergic receptor
T1 construct: The entire coding region of α1B (1563 bp); expressed in transfected cells
T1 sequence (P35368 1-520): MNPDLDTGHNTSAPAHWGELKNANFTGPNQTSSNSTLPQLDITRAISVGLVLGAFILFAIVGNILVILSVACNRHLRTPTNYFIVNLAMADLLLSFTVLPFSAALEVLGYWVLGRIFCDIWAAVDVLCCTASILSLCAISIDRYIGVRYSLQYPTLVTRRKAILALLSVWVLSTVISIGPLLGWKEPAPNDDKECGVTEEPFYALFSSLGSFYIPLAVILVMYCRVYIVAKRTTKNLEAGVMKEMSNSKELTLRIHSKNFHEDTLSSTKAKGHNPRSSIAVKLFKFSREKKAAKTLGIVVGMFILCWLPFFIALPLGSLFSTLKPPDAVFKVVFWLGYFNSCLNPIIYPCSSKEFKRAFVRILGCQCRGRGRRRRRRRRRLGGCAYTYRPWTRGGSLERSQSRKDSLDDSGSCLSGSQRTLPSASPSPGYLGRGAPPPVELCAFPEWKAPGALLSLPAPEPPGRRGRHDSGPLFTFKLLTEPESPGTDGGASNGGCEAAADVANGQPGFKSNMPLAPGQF
Outline: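 Membranes from stably transfected LM(tk−) cells, resuspended in 50 mM Tris-HCl, 1 mM MgCl2, 0.1% ascorbic acid, pH 7.5, were incubated with 0.5 nM [3H]prazosin for 20 min at 37° C. Nonspecific binding defined with 10 μM phentolamine; bound ligand separated by GF/B filtration.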

canine prostate = assay: In vivo dog prostate model: inhibition of phenylephrine-induced increase in urethral pressure in anesthetized dogs
Description: Protocol for In Vivo Evaluation of Compounds in Canine Prostate
Adult male mongrel dogs more than one year of age were chosen for the model. After induction of general anesthesia using sodium pentobarbital (25 mg/Kg i.v.), the animals were intubated and allowed to breathe spontaneously. An arterial catheter was inserted via the femoral artery to monitor blood pressure and i.v. line was inserted into the leg for fluid and drug administration. A constant saline infusion was maintained at 40 to 50 mL/h. Next, a seven cm lower abdominal incision was made one cm lateral to the penis.
The bladder, prostate and a short segment of urethra were identified and isolated, without damage to the nerves or blood vessels. A cystotomy incision was made through which the pressure catheter was inserted and positioned in the prostatic urethra. The cystotomy was not closed, but the wound edges were sutured to stop bleeding. The tip of the catheter was positioned just distal to the prostate and secured in place with an O-silk tie around the urethra. A second holding suture at the bladder neck secured the catheter in place.
Fluid, either water or saline, was pumped by a Harvard infusion pump at 0.1 mL/min through a Gould pressure transducer into the catheter. The fluid exists at a port in the catheter which is in the prostatic urethra. Occlusion of the port, by contraction of the prostate, blocks the flow and a pressure wave is created. This pressure is transmitted back through the catheter to the transducer which is attached to a Gould recorder. Squeezing the prostate gland caused an increase in urethral pressure which verified the correct position in the urethra.
The compounds were tested as follows: A dose response curve was first generated for phenylephrine alone, in doses ranging from one μg/Kg to 50 μg/Kg. The absolute rise in urethral pressure was recorded for each dose and the next dose given when the urethral pressure returned to baseline. Phenylephrine dose response curves were generated in all animals tested. Increasing doses of compounds were then given, and the phenylephrine dose response curve repeated in the prepense of each dose of the compound. No animal received more than one compound; four animals were used to test each compound. To test for tachyphylaxis, four separate dogs were challenged with repeated phenylephrine doses for six hrs, the usual length of each experiment. From the dose-effect data, the inhibition constant (Ki) and the median-effect dose (ED50) were calculated. Both the Ki and ED50 values given are calculated by using microcomputer software and an IBM-PC.

human prostatic tissue = assay: In vitro human prostate model: block of phenylephrine-induced contraction of human prostatic tissue; format: cell-based
Description: The protocol for these experiments is given below.
Functional Properties of α1 Antagonists in the Human Prostate
The efficacy of α1 adrenergic antagonists for the treatment of benign prostatic hyperplasia (BPH) is related to their ability to elicit relaxation of prostate smooth muscle. An index of this efficacy can be obtained by determining the potency of al antagonists to antagonize the contraction of human prostatic tissue induced by an α1 agonist “in vitro”. Furthermore, by comparing the potency of subtype selective α1 antagonists in binding assays using human α1 receptors with their potency to inhibit agonist-induced smooth muscle contraction, it is possible to determine which of the α1 adrenergic receptor subtypes is involved in the contraction of prostate smooth muscle.
Prostatic adenomas were obtained at the time of surgery from patients with symptomatic BPH. […] The baths were maintained at 37° C. and continuously oxygenated with 5% CO2 and 95% O2. Isometric tension was measured with a Grass Instrument FT03 force transducer interfaced with a computer. Tissue strips were contracted with varying concentrations of phenylephrine after incubating for 20 minutes in the absence and presence of at least three different concentrations of antagonist. Dose-response curves for phenylephrine were constructed, and the antagonist potency (pA2) was estimated by the dose-ratio method. The concentration of some antagonists in the tissue bath was assessed by measuring the displacement of [3H]prazosin by aliquots of the bath medium, using membrane preparations of the cloned human α1C receptor. This control was necessary to account for losses of antagonist due to adsorption to the tissue bath and/or metabolism during the time the antagonists were equilibrated with the prostate tissue.

[2] = PKi alpha-1 1b, cloned human α1B receptor, LM(tk-) cell membranes
[3] = cloned human α1B receptor, LM(tk-) cell membranes, read-out: PKi alpha-1 1b (converted)

SMILES	Ki [1, 2]	melting point	Ki [1, 3]	further results
COC(=O)C1=C(C)NC(C)=C(C(=O)NCCCN2CCC(c3ccccc3)CC2)C1c1ccc([N+](=O)[O-])cc1 (racemic) [(±)-45, (±)-1,4-Dihydro-3-methoxycarbonyl-2,6-dimethyl-4-(4-nitrophenyl)-5-{N-[3-(4-phenylpiperidin-1-yl)propyl]}carboxamidopyridine hydrochloride hemihydrate]	–	–	–	Ki ([1]; cloned human receptor in LM(tk-) cell membranes, SEM and n in lines below, read-out: pKi alpha-1 1b (converted)): 13.5 nM; Ki (canine prostate; In Vivo Dog Prostate Model, phenylephrine-induced contraction, urethral pressure): 12 nmol/kg; pKi (human prostatic tissue; In Vitro Human Prostate Model, phenylephrine-induced contraction): 8.07 ± 0.13
CNC(=O)C1=C(C)NC(C)=C(C(=O)NCCCN2CCC(c3ccccc3)(c3ccccc3)CC2)C1c1ccc([N+](=O)[O-])cc1 (centres unmarked) [Example 38, 1,4-Dihydro-2,6-dimethyl-5-(N-methyl)carboxamido-4-(4-nitrophenyl)-3-{N-[3-(4,4-diphenylpiperidin-1-yl)propyl]}carboxamidopyridine]	–	–	–	pKi alpha-1 1b ([1]; cloned human receptor in LM(tk-) cell membranes, SEM and n in lines below): 6.38; Urethral Pressure K i (canine prostate; inhibition of phenylephrine-induced increases in urethral pressure, anesthetized dogs): 8 ± 1.5 nmol/kg; pA2 (human prostatic tissue; block of phenylephrine-induced contraction of human prostate): 8.98 ± 0.06
CC(=O)C1=C(C)NC(COCCN)=C(C(=O)NCCCN2CCC(c3ccccc3)(c3ccccc3)CC2)C1c1ccc2c(c1)OCO2 (centres unmarked) [Example 239, 5-Acetyl-2-((2-aminoethyl)oxy)methyl-1,4-dihydro-6-methyl-4-(3,4-methylenedioxy)phenyl-3-(N-(3-(4,4-dipheylpiperidin-1-yl)propyl))carboxamidopyridine]	257 nM	80 °C (dec.)	–	–
CCOC(=O)C1(c2ccccc2)CCN(CCCNC(=O)C2=C(COC)NC(CC)=C(C(=O)O)C2c2ccc([N+](=O)[O-])cc2)CC1 (centres unmarked) [Example 240, 3-(N-3-(4-Ethoxycarbonyl-4-phenylpiperidin-1-yl)propyl)carboxamido-6-ethyl-1,4-dihydro-2-(methyloxy)methyl-4-(4-nitro)phenylpyridine-5-carboxylic Acid]	–	116 to 126 °C	4470 nM	–
COC(=O)C1(c2ccccc2)CCN(CCCNC(=O)C2=C(COCCCN)NC(C)=C(C(C)=O)C2c2ccc([N+](=O)[O-])cc2)CC1 (centres unmarked) [Example 241, 5-Acetyl-2-((3-aminopropyl)oxy)methyl-1,4-dihydro-3-(N-(3-(4-methoxycarbonyl-4-phenylpiperidin-1-yl)propyl))carboxamido-6-methyl-4-(4-nitro)phenylpyridine]	–	70 °C (dec.)	490 nM	–
CC(=O)C1=C(C)NC(COCCN)=C(C(=O)NCCCN2CCC(c3ccccc3)(c3ccccc3)CC2)C1c1ccc(F)cc1 (centres unmarked) [Example 242, 5-Acetyl-2-((2-aminoethyl)oxy)methyl-4-(4-fluoro)phenyl-1,4-dihydro-6-methyl-3-(N-(3-(4,4-diphenylpiperidin-1-yl)propyl))carboxamidopyridine]	83.2 nM	75 °C (dec.)	–	–
CCOC(=O)C1(c2ccccc2)CCN(CCCNC(=O)C2=C(COCCN)NC(C)=C(C(C)=O)C2c2ccc3c(c2)OCO3)CC1 (centres unmarked) [Example 244, 5-Acetyl-2-((2-aminoethyl)oxy)methyl-3-(N-(3-(4-ethoxycarbonyl-4-phenylpiperidin-1-yl)propyl)) carboxamido-1,4-dihydro-6-methyl-4-(3,4-methylenedioxy) phenylpyridine]	–	55 °C (dec.)	513 nM	–
CCC1=C(C(=O)OCCO)C(c2ccc([N+](=O)[O-])cc2)C(C(=O)NCCCN2CCC(c3ccccc3)(c3ccccc3)CC2)=C(COC)N1 (centres unmarked) [Example 246]	174 nM	73 °C (dec.)	–	–
CCC1=C(C(=O)NCCOC)C(c2ccc([N+](=O)[O-])cc2)C(C(=O)NCCCN2CCC(c3ccccc3)(c3ccccc3)CC2)=C(COC)N1 (centres unmarked) [Example 247, 6-Ethyl-1,4-dihydro-5-N-((2-methoxy)ethyl)carboxamido-2-(methyloxy)methyl-4-(4-nitro)phenyl-3-(N-(3-(4,4-diphenylpiperidin-1-yl)propyl)) carboxamidopyridine]	912 nM	70 °C (dec.)	–	–
CCC1=C(C(=O)NN2CCOCC2)C(c2ccc([N+](=O)[O-])cc2)C(C(=O)NCCCN2CCC(c3ccccc3)(c3ccccc3)CC2)=C(COC)N1 (centres unmarked) [Example 248, 6-Ethyl-1,4-dihydro-2-((methyl)oxy)methyl-5-N-(morpholin-4yl)carboxamido-4-(4-nitro)phenyl-3-(N-(3-(4,4-diphenylpiperidin-1-yl)propyl))carboxamidopyridine]	–	112 °C (dec.)	1510 nM	–
COC(=O)C1=C(C)NC(C)=C(C(=O)NCCCN2CCC(c3ccccc3)(c3ccccc3)CC2)C1c1cccc([N+](=O)[O-])c1 (centres unmarked) [Example 249, 1,4-Dihydro-3-methoxycarbonyl-2,6-dimethyl-4-(3-nitrophenyl)-5-(N-(3-(4,4-diphenylpiperidin-1-yl)propyl)carboxamido)-pyridine]	–	192 to 193 °C	–	PKi alpha-1 1b ([1]; cloned human α1B receptor, LM(tk-) cell membranes): 6.63
COC(=O)C1=C(C)NC(C)=C(C(=O)NCCCN2CCC(c3ccccc3)CC2)C1c1ccc2c(c1)OCO2 (centres unmarked) [Example 250]	–	161 to 165 °C	69.2 nM	–
